From patent US20250346584A1, “NOVEL KAPPA OPIOID LIGANDS” (The Scripps Research Institute, priority 2012, published 2025)
One block for each molecule: values may come before it.

Biological target: kappa opioid receptor (OPRK1) (Homo sapiens (Human), UniProt P41145)
Assay: OPRK1 antagonist assay (b-arrestin-2-TEV / b-lactamase reporter cell line, EC80 U-50488 challenge)
Type: cell-based
Details: for IC50: read-out: IC50 nM (% inhib if other than 50%), antagonist mode vs EC80 U-50488, NA = not active at concentrations up to 10 μM

kappa opioid receptor (OPRK1), sequence (P41145 whole entry): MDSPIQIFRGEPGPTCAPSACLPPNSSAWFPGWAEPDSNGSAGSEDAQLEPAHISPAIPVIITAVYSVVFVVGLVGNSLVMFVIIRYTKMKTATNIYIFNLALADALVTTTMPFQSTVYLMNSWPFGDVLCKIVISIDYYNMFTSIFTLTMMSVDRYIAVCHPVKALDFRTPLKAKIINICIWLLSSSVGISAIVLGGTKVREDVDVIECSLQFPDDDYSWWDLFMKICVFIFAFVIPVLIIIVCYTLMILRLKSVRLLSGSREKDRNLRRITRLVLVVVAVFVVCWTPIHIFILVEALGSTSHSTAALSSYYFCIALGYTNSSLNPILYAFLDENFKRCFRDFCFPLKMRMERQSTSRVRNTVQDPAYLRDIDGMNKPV

Compound: COC(=O)c1cc(Br)cnc1N1CCC(NC2CCC[C@H]2O)CC1 (some centres unmarked) [compound 12]
IC50: 765 nM

Compound: Cc1cnc(N2CC[C@@H](NC3CCCCC3)[C@H](O)C2)c(-c2ncccn2)c1 [compound 244]
IC50: 566 nM

Compound: Cc1ccc2nc(N3CCC(NC4CCCCC4F)CC3)c(-c3nc(C)no3)cc2c1 (centres unmarked) [compound 250]
IC50: 8 nM

Compound: COC(=O)c1cc(Br)cnc1N1CCC(OC2CCCC2O)CC1 (centres unmarked) [C51]
IC50: > 20000 nM

Compound: Cc1ccc2nc(N3CCC(NC4CCCC[C@@H]4O)CC3)c(-c3noc(C)n3)cc2c1 (some centres unmarked) [compound 437]
IC50: 17 nM

Compound: COC(=O)c1cc(Cl)cnc1N1CCC(NC2CCCCC2)CC1 [compound 40]
IC50: 159 nM

Compound: CCC1(CO)CN(c2ncc(C)cc2-c2nc(C)no2)CCC1NC1CCCCC1 (centres unmarked) [compound 182]
IC50: 76 nM

Compound: CCC1(CO)CN(c2nc3ccccc3cc2-c2nc(C)no2)CCC1NC1CCCCC1 (centres unmarked) [compound 208]
IC50: 76 nM

Compound: COC1CN(c2nc3cccc(F)c3cc2-c2nc(C)no2)CCC1NC1CCCCC1 (centres unmarked) [compound 252]
IC50: 12 nM

Compound: COC(=O)c1cc(Br)cnc1N1CCC(NC2CCCCC2)C(C(=O)OC)C1 (centres unmarked) [compound 116]
IC50: 793 nM

Compound: Cc1noc(-c2cc3c(F)cccc3nc2N2CCC(NC3CCCCC3)C(CO)C2)n1 (centres unmarked) [compound 253]
IC50: 10 nM

Compound: Cc1noc(-c2cc3ccccc3nc2N2CCC(CO)(NC3CCCCC3)CC2)n1 [compound 222]
IC50: 163 nM

Compound: COC(=O)c1cc(I)cnc1N1CC[C@@H](NC2CCCCC2)[C@H](O)C1 [compound 106]
IC50: 24 nM

Compound: COC1CN(c2nc3ccc(C)cc3cc2C(=O)N2CCCC2)CCC1NC1CCCCC1 (centres unmarked) [compound 323]
IC50: 1340 nM

Compound: Cc1noc(-c2cc(Br)cnc2N2CCC(NC3CCCCC3)C(CO)C2)n1 (centres unmarked) [compound 145]
IC50: 117 nM

Compound: COC(=O)c1cc(Br)cnc1N1CCC(NC(=O)C2CCCCC2)CC1 [C58]
IC50: > 20000 nM

Compound: CO[C@H]1CN(c2nc3ccc(C)cc3cc2C(=O)OC(C)C)CC[C@H]1NC1CCCCC1 [compound 343]
IC50: 10.6 nM

Compound: COC1CN(c2nc(C)c(C)cc2-c2nc(C)no2)CCC1NC1CCCC1 (centres unmarked) [compound 317]
IC50: 27 nM

Compound: COC1CN(c2nc3ccc(C)cc3cc2-c2nc(C3CC3)no2)CCC1NCC(C)C (centres unmarked) [compound 376]
IC50: 14 nM

Compound: CCOC(=O)c1cc(C(=O)OC)c(C)nc1N1CCC(NC2CCCCC2)C(CO)C1 (centres unmarked) [compound 93]
IC50: 621 nM

Compound: Cc1cnc(-c2cc3ccccc3nc2N2CCC(NC3CCCCC3)CC2)cn1 [compound 466]
IC50: 24 nM

Compound: COC(=O)c1cc(Br)cnc1N1CCC(N2CCCCC2)CC1 [compound 18]
IC50: 2100 nM

Compound: Cc1ccc2nc(N3CCC(NC4CCC[C@@H]4O)CC3)c(-c3noc(C)n3)cc2c1 (some centres unmarked) [compound 440]
IC50: 70 nM

Compound: COC1CN(c2nc3ccccc3cc2-c2cnc(C)cn2)CCC1NC1CCCCC1 (centres unmarked) [compound 465]
IC50: 18 nM

Compound: Cc1ccc2nc(N3CCC(NC4CCCCC4)C(CO)C3)c(-c3nnc(C)o3)cc2c1 (centres unmarked) [compound 301]
IC50: 38 nM

Compound: COC1CN(c2ncc(C)cc2-c2nccc(C)n2)CCC1NC1CCCCC1 (centres unmarked) [compound 384]
IC50: 16700 nM

Compound: CO[C@H]1CN(c2nc3cc(F)ccc3cc2-c2nc(C)no2)CC[C@H]1NCC(C)C [compound 538]
IC50: 970 nM

Compound: COC(=O)c1cc(C)c(C)nc1N1CC[C@@H](NC2CCCCC2)[C@H](O)C1 [compound 161]
IC50: 157 nM

Compound: Cc1noc(-c2cc(C)c(C)nc2N2CC[C@H](NC3CCCCC3)[C@@H](O)C2)n1 [compound 543]
IC50: 32 nM

Compound: CCOC(=O)c1c(Cl)cc(C)nc1N1CCC(N[C@@H]2CCCC[C@H]2O)CC1 [compound 2]
% inhib if other than 50% (% inhibition at the concentration given): 65%
IC50: 4500 nM

Compound: Cc1noc(-c2cnc(N3CC[C@@H](NC4CCCCC4)[C@H](O)C3)c(C)c2)n1 [compound 177]
IC50: > 20 nM

Compound: Cc1ccc2nc(N3CCC(NC4(C)CCOCC4)CC3)c(-c3nc(C)no3)cc2c1 [compound 271]
IC50: 419 nM

Compound: OCC1CN(c2nc3ccccc3cc2-c2ncccn2)CCC1NC1CCCCC1 (centres unmarked) [compound 264]
IC50: 56 nM

Compound: COC1CN(c2nc(C)c(C)cc2-c2nc(C)no2)CCC1NC1CCCCC1 (centres unmarked) [compound 165]
IC50: 19 nM

Compound: COC(=O)c1cc(Br)cnc1N1CCC(NC2CCCCC2)CC1C (centres unmarked) [compound 64]
IC50: 901 nM

Compound: CO[C@@H]1CN(c2nc3c(C)c(F)ccc3cc2-c2nc(C)no2)CC[C@@H]1NC1CCCCC1 [compound 492]
IC50: 74 nM

Compound: CCOC(=O)c1cc(C(=O)OC)c(C)nc1N1CCC(NC2CCCCC2)CC1 [compound 92]
IC50: 2600 nM

Compound: COC(=O)c1cc(Br)cnc1N1CCC(NC2CCCCC2)CC1 [compound 7]
IC50: 133 nM

Compound: CO[C@@H]1CN(c2nc3ccccc3cc2-c2cnc(C)cn2)CC[C@@H]1NC1CCCCC1 [compound 471]
IC50: 170 nM

Compound: CO[C@H]1CN(c2nc3ccc(F)cc3cc2-c2nc(C)no2)CC[C@H]1NCC(C)C [compound 530]
IC50: 5100 nM

Compound: CCc1noc(-c2cc(Br)cnc2N2CC[C@@H](NC3CCCCC3)[C@H](O)C2)n1 [compound 137]
IC50: 1600 nM

Compound: COC1CN(c2nc3ccccc3cc2-c2nc(C)no2)CCC1NC1CCCC1 (centres unmarked) [compound 308]
IC50: 2.5 nM

Compound: COC1CN(c2nc(C)c(C)cc2-c2nc(C)no2)CCC1NC1CCCCCC1 (centres unmarked) [compound 319]
IC50: 21 nM

Compound: COC(=O)c1cc2ccccc2nc1N1CCC(NC2CCCCC2)C(CO)C1 (centres unmarked) [compound 157]
IC50: 37 nM

Compound: COC1CN(c2nc(C)c(C)cc2-c2nc(C)no2)CCC1NC1CCOCC1 (centres unmarked) [compound 321]
IC50: 105 nM

Compound: Cc1nc(-c2cc3cc(C)c(F)cc3nc2N2CCC(NC3CCOCC3)CC2)no1 [compound 507]
IC50: 43 nM

Compound: COC(=O)c1cc(C2CC2)cnc1N1CCC(NC2CCCCC2)C(O)C1 (centres unmarked) [C66]
IC50: 17000 nM

Compound: COC1CN(c2nc(C)c(C)cc2-c2nc(C)no2)CCC1NCC(C)C (centres unmarked) [compound 378]
IC50: 256 nM

Compound: COC(=O)c1cc(N)cnc1N1CCC(NC2CCCCC2)CC1 [compound 85]
IC50: 1800 nM

Compound: Cc1nc(-c2cc3cc(C)c(F)cc3nc2N2CCC(NC3CCCC3)CC2)no1 [compound 512]
IC50: 12 nM

Compound: COC(=O)c1cc([N+](=O)[O-])cnc1N1CCC(NC2CCCCC2)CC1 [compound 84]
IC50: 6200 nM

Compound: CCc1noc(-c2cc3cc(C)ccc3nc2N2CCC(NC3CCCC3)C(OC)C2)n1 (centres unmarked) [compound 310]
IC50: 4 nM

Compound: CCOC(=O)c1cc(C(=O)OC)c(C)nc1N1CCC(NC2CCCCC2)C(O)C1 (centres unmarked) [compound 94]
IC50: 61 nM

Compound: Cc1cc(-c2nc(C)no2)c(N2CCC(NC3CCCCC3)C(CO)C2)nn1 (centres unmarked) [compound 180]
IC50: 7 nM

Continued by falling IC50, values first:

IC50: 30000 nM
Compound: COC1CN(c2ncc(C)cc2C=O)CCC1NC1CCCCC1 (centres unmarked) [C69]

IC50: 13000 nM
Compound: CCOC(=O)c1cc(C#N)c(C)nc1N1CCC(NC2CCCCC2)C(O)C1 (centres unmarked) [C53]

IC50: 6700 nM
Compound: CC(=O)c1cc(Br)cnc1N1CCC(NC2CCCCC2)CC1 [compound 96]

IC50: 5900 nM
Compound: COC(=O)c1cc(Br)cnc1N1CCC(N)C(O)C1 (centres unmarked) [compound 83]

IC50: 4470 nM
Compound: Cc1ccc2nc(N3CCC(NC4COC4)CC3)c(-c3nc(C)no3)cc2c1 [compound 270]

IC50: 3210 nM
Compound: Cc1cnc(N2CCC(NC3CCOCC3)CC2)c(-c2cnc(C)cn2)c1 [compound 473]

IC50: 2200 nM
Compound: COC(=O)c1cccnc1N1CCC(NC2CCCCC2)C(O)C1 (centres unmarked) [compound 57]

IC50: 1740 nM
Compound: Cc1ccc2nc(N3CCC(N4CCCCC4)CC3)c(-c3nc(C)no3)cc2c1 [compound 266]

IC50: 1440 nM
Compound: CO[C@@H]1CN(c2ncc(C)cc2C(=O)OC(C)C)CC[C@@H]1NC1CCCCC1 [compound 361]

IC50: 564 nM
Compound: Cc1ccc2nc(N3CCC(N[C@H]4CCCC[C@@H]4O)CC3)c(-c3ccncn3)cc2c1 [compound 516]

IC50: 404 nM
Compound: COC(=O)c1cc(C)cnc1N1CCC(NC2CCCCC2)CC1 [compound 108]

IC50: 398 nM
Compound: CC(C)OC(=O)c1cc(Br)cnc1N1CCC(NC2CCCCC2)CC1 [compound 39]

IC50: 347 nM
Compound: CO[C@@H]1CN(c2nc3ccc(C)cc3cc2C(C)=O)CC[C@@H]1NC1CCCCC1 [compound 484]

IC50: 315 nM
Compound: CO[C@H]1CN(c2nc3ccc(C)cc3cc2C(C)=O)CC[C@H]1NC1CCCCC1 [compound 483]

IC50: 211 nM
Compound: CC(=O)c1cc2cc(C)ccc2nc1N1CCC(NC2CCCCC2)CC1 [compound 479]

IC50: 132 nM
Compound: Cc1cnc(N2CCC(NC3CCCCC3C)C(CO)C2)c(-c2nc(C)no2)c1 (centres unmarked) [compound 203]

IC50: 132 nM
Compound: Cc1noc(-c2cc3ccc(F)c(C)c3nc2N2CCC(NC3CCOCC3)CC2)n1 [compound 493]

IC50: 127 nM
Compound: COC(=O)c1cc(Br)cnc1N1CCC(NC2CCCCC2OC)C(CO)C1 (centres unmarked) [compound 82]

IC50: 116 nM
Compound: Cc1cnc(N2CCC(NC3CCCC3)C(CO)C2)c(-c2nc(C)no2)c1 (centres unmarked) [compound 201]

IC50: 87 nM
Compound: COC(=O)c1cc(Br)cnc1N1CCC(NC2CCCCC2C)C(CO)C1 (centres unmarked) [compound 80]

IC50: 63 nM
Compound: CCOC(=O)c1nc2cc(C)ccc2nc1N1CCC(NC2CCCCC2)C(CO)C1 (centres unmarked) [compound 373]

IC50: 59 nM
Compound: Cc1noc(-c2cc3cc(F)ccc3nc2N2CC[C@@H](NC3CCCCC3)[C@H](O)C2)n1 [compound 241]

IC50: 54 nM
Compound: CO[C@H]1CN(c2nc3cc(F)c(C)cc3cc2-c2nc(C)no2)CC[C@H]1NC1CCCCC1 [compound 496]

IC50: 48 nM
Compound: Cc1ccc2nc(N3CCC(NC[C@@H](C)O)CC3)c(-c3nc(C)no3)cc2c1 [compound 421]

IC50: 35 nM
Compound: CCOC(=O)c1cc(C)c(C)nc1N1CCC(NC2CCCCC2)C(CO)C1 (centres unmarked) [compound 159]

IC50: 18 nM
Compound: Cc1ccc2nc(N3CCC(NC4CCCCC4)C(CO)C3)c(C(=O)OC(C)C)cc2c1 (centres unmarked) [compound 291]

IC50: 16 nM
Compound: Cc1noc(-c2cc3cc(Cl)ccc3nc2N2CCC(NC3CCCCC3)C(CO)C2)n1 (centres unmarked) [compound 239]

IC50: 12 nM
Compound: CCOC(=O)c1cc(C(=O)OC)c(C)nc1N1CC[C@@H](NC2CCCCC2)[C@H](O)C1 [compound 119]

IC50: 8.5 nM
Compound: Cc1ccc2nc(N3CC[C@@H](NC4CCCCC4)[C@H](O)C3)c(-c3nc(C)no3)cc2c1 [compound 213]

IC50: 4 nM
Compound: CCc1noc(-c2cc3cc(C)ccc3nc2N2CCC(NC3CCCCC3)C(OC)C2)n1 (centres unmarked) [compound 283]

IC50: 0.99 nM
Compound: CO[C@H]1CN(c2nc3ccc(C)cc3cc2-c2noc(C)n2)CC[C@H]1NC1CCCCC1 [compound 338]
